Source: patent publication US20240287033A1, “DEGRADERS OF TISSUE TRANSGLUTAMINASE 2 (TG2)” (Northwestern University, priority 2023, published 2024)
“Also recorded” adds a separate entry of the source. Like-named read-outs stand apart in the source and are kept apart here. Blank lines part the entries; values can stand above or below the molecule they belong to.

Columns and labels:
[1] = Solubility observations; assay type: physicochemical
[2] = molecular target: T1, full-length TG2 (Homo sapiens, UniProt P21980); assay: Isothermal titration calorimetry (ITC) binding to TG2; conditions: for Kd: titration into TG2 at 30° C., PBS with 1% DMSO, read-out: equilibrium dissociation constant KD (ITC)
T1 sequence (P21980 1-687): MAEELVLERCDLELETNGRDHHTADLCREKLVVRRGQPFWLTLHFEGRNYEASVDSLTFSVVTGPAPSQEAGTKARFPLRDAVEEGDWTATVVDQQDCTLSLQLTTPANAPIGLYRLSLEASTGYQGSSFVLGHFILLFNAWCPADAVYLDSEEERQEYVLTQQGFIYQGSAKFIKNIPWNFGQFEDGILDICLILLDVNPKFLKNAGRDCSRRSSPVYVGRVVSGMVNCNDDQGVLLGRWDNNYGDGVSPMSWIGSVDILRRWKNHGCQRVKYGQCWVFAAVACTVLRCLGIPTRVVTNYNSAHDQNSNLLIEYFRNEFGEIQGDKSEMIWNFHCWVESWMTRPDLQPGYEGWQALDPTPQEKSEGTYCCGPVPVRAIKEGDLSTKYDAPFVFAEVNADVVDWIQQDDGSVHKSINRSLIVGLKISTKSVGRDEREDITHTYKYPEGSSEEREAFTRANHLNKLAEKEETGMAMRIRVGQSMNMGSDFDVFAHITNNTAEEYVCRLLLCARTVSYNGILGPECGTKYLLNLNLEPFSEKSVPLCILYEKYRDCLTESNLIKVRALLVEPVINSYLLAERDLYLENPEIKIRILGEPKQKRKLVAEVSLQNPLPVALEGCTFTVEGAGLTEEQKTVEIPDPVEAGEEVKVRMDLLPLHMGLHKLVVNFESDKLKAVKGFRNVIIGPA
Method: Sample Preparation. Protein dilutions in PBS with 1% DMSO were prepared from stock solutions of […] in PBS. The protein dilutions were initially equilibrated on ice for 5 min, then for 20 min at 30° C. The solutions were filtered using a […] Millipore centrifugal device just prior to insertion in the ITC cell. The solubility of the protein solutions was confirmed independently by DLS (data not shown), and the concentration of each solution (after filtration) was measured with a NanoDrop 2000 Instrument.
All compound dilutions were made in PBS, and the final DMSO concentration in each solution was carefully adjusted to 1%.
ITC Experiments. All ITC experiments were performed on an Affinity Low Volume instrument (Waters/TA Instruments) equipped with a fixed 198 μL gold cell. In each experiment, 320 μL of protein solution was loaded into the ITC cell, and 200 μL of the corresponding compound was in the syringe. The data were acquired using ITCRun data acquisition software. The incremental ITC experiments consisted of multiple 2 μL injections at 50-350-second intervals with a stirring speed of 100 revolutions per minute (rpm). The Auto Equilibrate function allowed for the equilibration of the baseline to a peak-to-peak standard deviation of less than 12 nW. For each compound, separate control experiments were performed to evaluate the heat of dilution. The control experiments were set with identical parameters but performed with reaction buffer instead of protein in the ITC cell and consisted of fewer (6-10) injections.
Data Analysis. ITC data were analyzed with Nano Analyze Software (Waters/TA Instruments) using the “independent sites” model after correction for heats of dilution.

[3] = molecular target: T1, full-length TG2; conditions: literature value (ref. 41); read-out: KD of MT4 to TG2, previously reported result; cited from earlier work
[4] = molecular target: T2, TG2 (Homo sapiens, UniProt P21980); assay: Western blot analysis of TG2 degradation in OVCAR5 cells; assay type: cell-based
T2 construct: tested in multiple ovarian cancer cell lines that express TG2 for their ability to degrade the protein; endogenous in cells; host or cells: OVCAR5 and SKOV3 ovarian cancer cells
T2 sequence (P21980 1-687): T1 sequence (P21980 1-687)
Method: (§1) SKOV3 cells were purchased from ATCC. OVCAR5 cells were obtained from Dr. Marcus Peter at Northwestern University. Cells were maintained at 37° C. in an environment of 5% CO2 and 100% humidity. The media used for culturing the cell lines are included in Table 1. Cells lines used in all experiments were at low-passages and were confirmed to be pathogen and mycoplasma-free by Charles River Animal Diagnostic Services. Cell lines were authenticated by IDEXX BioAnalytics with short tandem repeat (STR) profiling. MG132 was obtained from SelleckChem. Anti-TG2 antibody (cat #: MAB3839-I-100UG) was purchased from Millipore Sigma, GAPDH antibody (cat #: H86504M) was purchased from Meridian Bioscience.
(§2) Briefly, SKOV3 and OVCAR5 cells were seeded on 6 cm dishes and treated with different concentrations of compounds at different time points. Proteins were extracted using RIPA buffer and quantified using the Bradford assay. After gel electrophoresis and transfer, PDVF membranes were blocked with TBS-Tween 5% BSA for one hour and incubated with primary antibodies 20 (1:1000 dilution, overnight at 4° C.). After incubation with the secondary antibody (anti rabbit/mouse-horseradish peroxidase 1:1000 dilution) for 1 h at room temperature, signal was developed using SuperSignal West Pico PLUS Chemiluminescent Substrate (Thermo Fisher Scientific cat #: 34580) and captured with an ImageQuant LAS 4000 machine. To detect additional proteins, membranes were treated with Restore Western Blot Stripping Buffer (Thermo Fisher Scientific cat #: 21059), blocked, and then incubated with primary antibody.

[5] = system: SKOV3 cells; assay: Solid phase adhesion assay on fibronectin, SKOV3; assay type: cell-based
Method: (§3) Briefly, wells were coated with 10 μg/ml fibronectin diluted in PBS for one hour. 30,000 cells pretreated with compounds for 6 hours were seeded and allowed to attach for 30 minutes. After washing with PBS to remove unattached cells, cells adhering to coated wells were quantified by using the CCK-8 assay (ApexBio), following the manufacturer's protocol. Relative absorbance measured at 496 nm was used to estimate the relative number of the cell attached to fibronectin coated wells.

[6] = system: OVCAR5 cells; assay: Wound-healing (scratch) assay, OVCAR5; assay type: cell-based
Method: (§4) For the scratch assay, confluent 6-well plates were scratched with a pipette tip, washed and treated with compounds or vehicle. The plate was photographed at set time points and the area of wound closure was quantified with ImageJ. Cell migration was assessed by using Transwell inserts (8 μm pore size, Merck-Millipore, Watford, UK). Briefly, 15,000 cells were seeded in the upper chambers of trans-wells in serum-free media containing compounds or control, while media containing 10% serum was added to the lower chamber. After 18 hours, cells invaded through the transwells were fixed with warm 4% PFA for 20 min at room temperature and stained with crystal violet for 3 min. The membranes were removed, mounted on cover slides and cells were counted using a microscope at 40× magnification.

[7] = molecular target: T2, TG2; assay: Western blot analysis of TG2 degradation in SKOV3 cells; assay type: cell-based
Method: as §1, §2

[8] = system: OVCAR5 cells; assay: Cell viability assay (CCK-8), OVCAR5; assay type: cell-based; conditions: 0.1-30 μM, 5 days
Method: (§5) The numbers of viable cells were quantified by using the CCK-8 assay (ApexBio) following the manufacturer's directions. Absorbance was measured by a spectrophotometer at 495 nm and used estimate the viability of the cells.

[9] = system: OVCAR5 cells; assay: Transwell migration assay, OVCAR5; assay type: cell-based
Method: as §4

[10] = system: OVCAR5 cells; assay: Solid phase adhesion assay on fibronectin, OVCAR5; assay type: cell-based
Method: as §3

[11] = system: SKOV3 cells; assay: Wound-healing (scratch) assay, SKOV3; assay type: cell-based
Method: as §4

[12] = system: SKOV3 cells; assay: Cell viability assay (CCK-8), SKOV3; assay type: cell-based; conditions: 0.1-30 μM, 5 days
Method: as §5

[13] = system: SKOV3 cells; assay: Transwell migration assay, SKOV3; assay type: cell-based
Method: as §4

[14] = 10 μM compound 6 hrs, 10 μM VHL ligand
[15] = dosed every 6-8 hours over 24 hours, 1 or 10 μM

- Kd [2]: 7.8 µM
SMILES: Cc1cc(N(C)C)nc(Nc2ccc(NC(=O)Cc3ccccc3)cc2)n1 [MT4, reference compound]
- solubility (in words) [1]: lower solubility than the PROTAC compounds
- Kd [3]: 5.1 µM

- TG2 degradation with VHL ligand as competitive inhibitor [4, 14]: prevented degradation of TG2
- TG2 levels after longer treatment (western blot) ([4]; 24 hours, single dosing): did not induce reduction in TG2 levels
- solubility (in words) [1]: poorer solubility than compound 11
- decrease in affinity relative to the parental compound MT4 ([2]; ITC KD ratio versus MT4): > 12.8 fold
- Kd [2]: > 100 µM
- TG2 levels after longer treatment (western blot) ([7]; 24 hours, single dosing): did not induce reduction in TG2 levels
- time of maximal TG2 degradation ([7]; higher concentrations (10 and 30 μM)): 6 h
SMILES: Cc1cc(N(C)CCOCCC(=O)N[C@H](C(=O)N2C[C@H](O)C[C@H]2C(=O)NCc2ccc(-c3scnc3C)cc2)C(C)(C)C)nc(Nc2ccc(NC(=O)Cc3ccccc3)cc2)n1 [Compound 7, (2S,4R)-1-((S)-3,3-dimethyl-2-(3-(2-(methyl(6-methyl-2-((4-(2-phenylacetamido)phenyl)amino)pyrimidin-4-yl)amino)ethoxy)propanamido)butanoyl)-4-hydroxy-N-(4-(4-methylthiazol-5-yl)benzyl)pyrrolidine-2-carboxamide]
- TG2 degradation (western blot) ([4]; 6 hours, 0.1-10 μM): significantly reduced the level of TG2; also recorded: Degradation of TG2 was observed
- TG2 levels at 24 hours after repeated dosing [4, 15]: persistent and dose-dependent decreased TG2 levels
- adhesion of cells to fibronectin [5]: significantly reduced the adhesion
- cell migration, wound-healing assay [6]: potently inhibited the migration
- TG2 degradation with VHL ligand as competitive inhibitor [7, 14]: prevented degradation of TG2; also recorded: but not when combined with VHL ligand
- TG2 degradation (western blot) ([7]; 6 hours, up to 10 μM): significantly reduced the level of TG2; also recorded: Degradation of TG2 was observed
- TG2 levels at 24 hours after repeated dosing [7, 15]: persistent and dose-dependent decreased TG2 levels
- cell death / viability [8]: No significant cell death; also recorded: no cell death was observed
- cell migration, transwell migration assay [9]: potently inhibited the migration
- adhesion of cells to fibronectin [10]: significantly reduced the adhesion
- cell migration, wound-healing assay [11]: similarly inhibited the migration
- cell death / viability [12]: No significant cell death; also recorded: no cell death was observed
- cell migration, transwell migration assay [13]: similarly inhibited the migration
